In brackets after ≈: the same amount, converted by molar mass. Where two headings read alike, the source gives them in different places.
Key:
[1] = Aqueous solubility (saturation shake-flask, UV); format: physicochemical; conditions: pH 7.0 phosphate buffer, room temperature; for solubility at 48 h: aqueous buffer, thermodynamic from solid
Protocol: The aqueous solubility was determined in a Helios-α UV-320 Spectrophotometer Thermo-Spectronic, Thermo Fischer Scientific, Waltham, MA, USA) using an approach based on the saturation shake-flask method. 1–2 mg of each selected compound was suspended in 300 µL pH 7.0 buffer and stirred for 48 h at room temperature. The resulting mixture was filtered through a […] filter to discard the insoluble residues. A scan between 270 and 400 nm for the tested compound was performed and three wavelengths of maximum absorbance were selected. Calibration curves were performed at these wavelengths and the concentration in the supernatant was measured by UV absorbance. The final value was given as the average of the three measurements.

[2] = tested on: MCF7 (human breast carcinoma) cells; assay: Cell growth assay (XTT), MCF7; format: cell-based; conditions: Homo sapiens, MCF7; 72 h drug exposure, XTT; read-out: Antiproliferative activity IC50 MCF7
Protocol: (§1) The presence of mycoplasma was routinely checked with MycoAlert kit (Lonza-Cambrex) and only mycoplasma-free cells were used in the experiments. Tumour cell lines were kindly provided by Dr Faustino Mollinedo from Centro de Investigaciones Biológicas Margarita Salas, Madrid, Spain. To determine cell growth, cells in exponential growth phase were seeded (100 µL/well in 96-well plates) with appropriate cell concentration (1.5 × 10^4 cells/mL for MCF7, HeLa and HEK-293 and 3 × 10^4 cells/mL for HT-29) in complete DMEM or RPMI 1640 medium (see above) at 37 °C and 5% CO2 atmosphere. After 24 h incubation, to allow cells to attach to the plates, all compounds were added at 1 µM concentration (10 µL/well in 96-well plates) and the effect on the proliferation was evaluated 72 h post-treatment. Compounds showing antiproliferative effects at tested concentration were selected for IC50 calculation (50% inhibitory concentration compared to the untreated controls) from 10^−5 to 10^−10 M concentration. Nonlinear curves fitting the experimental data were carried out for each compound. […] A freshly prepared mixture solution of XTT labelling reagent with 0.02% (v/v) PMS (N-methyl-dibenzopyrazine methyl sulfate) electron coupling reagent was added to cells (50 µL/well in 96-well plates, the total volume of 160 µL/well) and were incubated during the corresponding time according to each cell line (4 h for MCF7 and HeLa and 6 h for HT-29 and HEK-293) in a humidified atmosphere (37 °C, 5% CO2). The absorbance of the formazan product generated was measured at a test wavelength of 450 nm using a multi-well plate reader (Ultra Evolution, Tecan, Männedorf, Suiza). Compounds were dissolved in DMSO and the final solvent concentrations never exceeded 0.5% (v/v). The control wells included treated cells with 0.5% (v/v) DMSO and the positive control. 10 µM verapamil was included as a control for the HT-29 cell line. Measurements were performed in triplicate, and each experiment was repeated three times.

[3] = tested on: HT-29 (human colon carcinoma) cells; assay: Cell growth assay (XTT), HT-29, alone or with verapamil; format: cell-based
Protocol: as §1, with “Compounds showing antiproliferative effects at tested concentration were selected for IC50 calculation (50% inhibitory concentration compared to the untreated controls) from 10^−5 to 10^−10 M concentration.” left out

[4] = tested on: HeLa (human cervical carcinoma) cells; assay: Cell growth assay (XTT), HeLa; format: cell-based; conditions: 72 h drug exposure, read-out: Antiproliferative activity IC50 HeLa
Protocol: as §1

[5] = target: T1, microtubular protein isolated from calf brain (Bos taurus, UniProt P81947+Q6B856); assay: Inhibition of tubulin polymerisation (turbidity); format: biochemical; conditions: for TPI % 10 µM: 10 µM compound, 1.5 mg/mL microtubular protein; for IC50: in vitro tubulin polymerisation inhibition, read-out: TPI IC50
T1 construct: isolated from calf brain according to the modified Shelanski method; from tissue; host or cells: calf brain
T1 sequence (Q6B856 whole entry): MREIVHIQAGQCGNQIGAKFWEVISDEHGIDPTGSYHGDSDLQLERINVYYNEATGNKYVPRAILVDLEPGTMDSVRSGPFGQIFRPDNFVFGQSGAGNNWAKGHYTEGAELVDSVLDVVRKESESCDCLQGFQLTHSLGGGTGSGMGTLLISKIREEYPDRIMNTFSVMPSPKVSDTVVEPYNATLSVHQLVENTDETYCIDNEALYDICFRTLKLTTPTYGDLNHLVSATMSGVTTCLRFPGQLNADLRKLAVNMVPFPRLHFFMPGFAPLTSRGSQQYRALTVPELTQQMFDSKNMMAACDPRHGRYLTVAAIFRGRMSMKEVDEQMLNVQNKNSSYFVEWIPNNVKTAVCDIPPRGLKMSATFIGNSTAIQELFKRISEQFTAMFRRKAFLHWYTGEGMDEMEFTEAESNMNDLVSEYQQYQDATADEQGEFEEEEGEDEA
T1 sequence (P81947 whole entry): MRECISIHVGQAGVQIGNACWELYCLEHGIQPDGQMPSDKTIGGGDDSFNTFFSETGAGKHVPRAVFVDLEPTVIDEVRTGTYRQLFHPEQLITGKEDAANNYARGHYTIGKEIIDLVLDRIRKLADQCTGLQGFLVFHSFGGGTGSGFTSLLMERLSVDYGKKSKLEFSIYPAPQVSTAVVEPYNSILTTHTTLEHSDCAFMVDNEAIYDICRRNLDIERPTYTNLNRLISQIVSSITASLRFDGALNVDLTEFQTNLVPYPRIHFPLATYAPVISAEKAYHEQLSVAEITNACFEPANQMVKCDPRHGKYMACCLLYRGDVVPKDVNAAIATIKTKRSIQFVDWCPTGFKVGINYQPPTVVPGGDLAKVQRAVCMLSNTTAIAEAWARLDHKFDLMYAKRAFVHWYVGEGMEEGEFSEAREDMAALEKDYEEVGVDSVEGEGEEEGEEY
Protocol: Microtubular protein was isolated from calf brain according to the modified Shelanski method[23]^,[24] by two cycles of temperature-dependent assembly/disassembly and stored at −80 °C. Before each use, protein concentration is determined by Bradford method[25] taking BSA as standard. Tubulin polymerisation was monitored using a Helios α spectrophotometer by measuring the increase in turbidity at 450 nm, caused by a shift from 4 °C to 37 °C, which allows the in vitro microtubular protein to depolymerise and to polymerise, respectively. The assay was carried out in quartz cuvettes containing 1.5 mg/mL microtubular protein and the ligand (except for control cuvette with only DMSO at the same concentration) in a mixture of 0.1 M MES buffer, 1 mM EGTA, 1 mM MgCl2, 1 mM β-ME, and 1.5 mM GTP at pH 6.7 (final volume 500 µL). Cuvettes were preincubated at 20 °C for 30 min, to allow ligand binding to tubulin, and subsequently cooled on ice for 10 min. Then, the experiment starts at 4 °C to establish the initial baseline. The assembly process was initiated by a temperature shift to 37 °C and the turbidity produced by tubulin polymerisation can be measured by an absorbance increase. After reaching a stable plateau, the temperature was switched back to 4 °C to return to the initial absorption values (to confirm the reversible nature of the monitored process and to determine whether or not the microtubular protein has stabilized). The difference in amplitude between the stable plateau and the initial baseline of the curves was taken as the degree of tubulin polymerisation for each experiment. […] All compounds were tested at 10 µM concentration. IC50 values were calculated for compounds that inhibit tubulin polymerisation more than 50% at 10 µM. […] All the measurements were carried out in at least two independent experiments using microtubular protein from different preparations.

[6] = 72 h, in the presence of Pgp/MDR1 inhibitor verapamil (10 µM), read-out: Antiproliferative activity IC50 HT-29 Verap
[7] = Homo sapiens, HT-29, 72 h drug exposure, XTT, read-out: Antiproliferative activity IC50 HT-29

| IC50 [2] | IC50 [3, 6] | IC50 [3, 7] | IC50 [4] | TPI % 10 µM [5] | solubility at 48 h [1] | melting point | IC50 [5] | Compound | Aqueous solubility ([1]; 48 h) | Difference of IC50 values HeLa vs HT-29 [3] |
| --- | --- | --- | --- | --- | --- | --- | --- | --- | --- | --- |
| > 1000 nM | – | > 1000 nM | > 1000 nM | 0% | – | 156 to 160 °C | > 10000 nM | COc1ccc(S(=O)(=O)N(C)c2cc(OC)cc(OC)c2Br)cc1 [Compound 8b, N-(2-bromo-3,5-dimethoxyphenyl)-4-methoxy-N-methylbenzenesulphonamide] | – | – |
| > 1000 nM | – | > 1000 nM | > 1000 nM | 4% | 82 µg/mL (≈ 254 µM) | 101 to 102 °C | > 10000 nM | COc1ccc(S(=O)(=O)Nc2ccc(OC)c(OC)c2)cc1 [Compound 11, N-(3,4-dimethoxyphenyl)-4-methoxybenzenesulphonamide] | – | – |
| > 1000 nM | – | > 1000 nM | > 1000 nM | 0% | 70 µg/mL (≈ 207 µM) | – | > 10000 nM | COc1ccc(S(=O)(=O)N(C)c2ccc(OC)c(OC)c2)cc1 [Compound 12, N-(3,4-dimethoxyphenyl)-4-methoxy-N-methylbenzenesulphonamide] | – | – |
| – | – | 543 nM | 510 nM | 0% | 22 µg/mL (≈ 54.7 µM) | 162 to 167 °C | > 10000 nM | COc1ccc(S(=O)(=O)Nc2cc(OC)c(OC)cc2Br)cc1 [Compound 13, N-(2-bromo-4,5-dimethoxyphenyl)-4-methoxybenzenesulphonamide] | – | – |
| – | – | 907 nM | 557 nM | 0% | 61 µg/mL (≈ 147 µM) | 136 to 141 °C | > 10000 nM | COc1ccc(S(=O)(=O)N(C)c2cc(OC)c(OC)cc2Br)cc1 [Compound 14, N-(2-bromo-4,5-dimethoxyphenyl)-4-methoxy-N-methylbenzenesulphonamide] | – | – |
| 660 nM | 500 nM | 365 nM | 313 nM | 24% | 26 µg/mL (≈ 60.4 µM) | 111 to 117 °C | > 10000 nM | CCN(c1cc(OC)c(OC)cc1Br)S(=O)(=O)c1ccc(OC)cc1 [Compound 15, N-(2-bromo-4,5-dimethoxyphenyl)-N-ethyl-4-methoxybenzenesulphonamide] | – | – |
| 715 nM | 1070 nM | 500 nM | 313 nM | 19% | 122 µg/mL (≈ 320 µM) | – | > 10000 nM | CCN(c1cc(OC)c(OC)cc1OC)S(=O)(=O)c1ccc(OC)cc1 [Compound 34, N-ethyl-4-methoxy-N-(2,4,5-trimethoxyphenyl)benzenesulphonamide] | – | – |

More lines, now with the values behind:

| Compound | IC50 [2] | IC50 [3, 6] | IC50 [3, 7] | IC50 [4] | TPI % 10 µM [5] | solubility at 48 h [1] | melting point | IC50 [5] | Aqueous solubility ([1]; 48 h) | Difference of IC50 values HeLa vs HT-29 [3] |
| --- | --- | --- | --- | --- | --- | --- | --- | --- | --- | --- |
| COc1ccc(/C=C\c2cc(OC)c(OC)c(OC)c2)cc1O [Combretastatin A-4, combretastatin A-4, reference compound] | 1 nM | 327 nM | 305 nM | 2 nM | 100% | – | – | – | 1 µg/mL | > 100 fold |
| COc1ccc(S(=O)(=O)N(C)c2cc(OC)cc(OC)c2)cc1 [Compound 2, N-(3,5-dimethoxyphenyl)-4-methoxy-N-methylbenzenesulphonamide] | 765 nM | – | > 1000 nM | 877 nM | 10% | 35 µg/mL (≈ 104 µM) | 120 to 128 °C | > 10000 nM | – | – |
| CCN(c1cc(OC)cc(OC)c1Br)S(=O)(=O)c1ccc(OC)cc1 [Compound 9b, N-(2-bromo-3,5-dimethoxyphenyl)-N-ethyl-4-methoxybenzenesulphonamide] | > 1000 nM | – | > 1000 nM | > 1000 nM | 0% | – | 141 to 144 °C | > 10000 nM | – | – |
| CCOC(=O)CN(c1cc(OC)c(OC)cc1Br)S(=O)(=O)c1ccc(OC)cc1 [Compound 17, Ethyl N-(2-bromo-4,5-dimethoxyphenyl)-N-((4-methoxyphenyl)sulphonyl)glycinate] | > 1000 nM | – | > 1000 nM | > 1000 nM | 0% | – | 116 to 126 °C | > 10000 nM | – | – |
| COc1ccc(S(=O)(=O)N(Cc2ccccc2)c2cc(OC)c(OC)cc2Br)cc1 [Compound 18, N-benzyl-N-(2-bromo-4,5-dimethoxyphenyl)-4-methoxybenzenesulphonamide] | > 1000 nM | – | > 1000 nM | > 1000 nM | 38% | – | 114 to 120 °C | > 10000 nM | – | – |
| COc1ccc(S(=O)(=O)N(CC(=O)O)c2cc(OC)c(Br)cc2OC)cc1 [Compound 29, N-(4-bromo-2,5-dimethoxyphenyl)-N-((4-methoxyphenyl)sulphonyl)glycine] | > 1000 nM | – | > 1000 nM | > 1000 nM | 8% | – | 180 to 184 °C | > 10000 nM | – | – |
| CCOC(=O)CN(c1cc(OC)c(OC)cc1OC)S(=O)(=O)c1ccc(OC)cc1 [Compound 36, Ethyl N-((4-methoxyphenyl)sulphonyl)-N-(2,4,5-trimethoxyphenyl)glycinate] | > 1000 nM | – | > 1000 nM | > 1000 nM | 0% | – | 127 to 132 °C | > 10000 nM | – | – |
